In series [1] the test system is HT-29 colorectal cancer cells. The experiment in a line: Tumor-treating effect in vivo, tumor volume depending on time, HT-29 tumor animal model. Details: species or system athymic nude mice. The note with it: HT-29 tumor in nude mice; FDOX or DOX 4 mg/kg intravenously, anti-PD-L1 antibody 10 mg/kg intraperitoneally, 3-day intervals. The procedure:
The following comparison groups were prepared to compare the efficiency of the test group.
Control group (control): identical to the test group except that no drug was administered.
First comparison group (FDOX): identical to the test group except that only the formulated drug conjugate (FDOX) was administered without the anti-PD-L1 antibody.
Second comparison group (DOX+PD-L1 Ab): identical to the test group except that 4 mg/kg of doxorubicin was administered intravenously instead of the formulated drug conjugate (FDOX).

Details of series [2]: species or system athymic nude mice. Particulars: mouse, in vivo. On the procedure: For the animal models of the second and third comparison groups, the organs were extracted on day 20 after the drug administration because the animals died within 20 days. After preparing tissues of each extracted organ into 10-μm thick sections, cell death in the organ was evaluated by staining cancerous tissues with annexin V. In addition, the tissues extracted from the major organs (heart, kidney, spleen, lung and liver) were stained with hematoxylin and eosin for investigation of the structural change in the tissues and toxicity.

Series [3] in a line: In-vivo toxicity by body weight depending on time, and death, in tumor-bearing mice. Particulars: HT-29 tumor-bearing nude mice.
Protocol: Specifically, athymic nude mice (6-week-old, 20-25 g, male) purchased from Nara Bio (Gyenggi-do, Korea) were used. In order to express colorectal cancers in the male nude mice, a tumor animal model was prepared by subcutaneously inoculating 1×10^7 HT-29 colorectal cancer cells into left thighs. […] The formulated drug conjugate (FDOX) was administered intravenously at a concentration of 4 mg/kg, and the anti-PD-L1 antibody was administered intraperitoneally at a concentration of 10 mg/kg. A test group (FDOX+PD-L1 Ab) was prepared by administering the two therapeutic agents at 3-day intervals.
For the test group, the control group and the first, second and third comparison groups, tumor size was measured at 2-day intervals and calculated as maximum diameter×minimum diameter. In addition, the body weight of each group was measured at 2-day intervals to investigate in-vivo toxicity.

As to `COc1cccc2c1C(=O)c1c(O)c3c(c(O)c1C2=O)C[C@@](O)(C(=O)CO)C[C@@H]3O[C@H]1C[C@H](N)[C@H](O)[C@H](C)O1` [DOX, doxorubicin], the “tumor growth (tumor volume depending on time)” value in series [1] is “could be delayed but could not be completely inhibited”. The “change in the major organs (H&E)” value in series [2] is listed as “long-term toxicity such as hemorrhage, disruption of tissue structure, enucleation”. In series [3], the “in-vivo / systemic toxicity” value is “fatal side effect leading to death”.

(Values after patent US11498946B2, “Pharmaceutical composition for combination therapy for preventing or treating cancer containing tumor-specific drug conjugate and anti-PD-L1 antibody as active ingredients” (KOREA INSTITUTE OF SCIENCE AND TECHNOLOGY, priority 2019, dated 2022).)
